Laboratory results as given in the supplement of paper PMC10307832.

Tests used:
Experiment in all cases: relative viability (nuclei count vs DMSO), 5 days (fraction); higher = more cells survive
201T = system: 201T
Summary of the method: (§1)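 Each reported value is a median over duplicate plates. It expresses relative viability: treated-well nuclei count divided by vehicle-well nuclei count. Lung cancer cell lines in 1536-well plates were dosed by pin tool a day after seeding, alone with one drug or with a fixed anchor-drug dose plus five library-drug doses (not always all listed) in √10 steps, and nuclei were counted after 5 days.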

ABC-1 = system: ABC-1
Summary of the method: as §1

BEN = system: BEN
Summary of the method: as §1

CAL-12T = system: CAL-12T
Summary of the method: as §1

COR-L 105 = system: COR-L 105
Summary of the method: as §1

EKVX = system: EKVX
Summary of the method: as §1

HARA = system: HARA
Summary of the method: as §1

LK-2 = system: LK-2
Summary of the method: as §1

LOU-NH91 = system: LOU-NH91
Summary of the method: as §1

NCI-H1437 = system: NCI-H1437
Summary of the method: as §1

NCI-H1650 = system: NCI-H1650
Summary of the method: as §1

NCI-H1666 = system: NCI-H1666
Summary of the method: as §1

NCI-H2009 = system: NCI-H2009
Summary of the method: as §1

NCI-H2170 = system: NCI-H2170
Summary of the method: as §1

NCI-H3122 = system: NCI-H3122
Summary of the method: as §1

NCI-H441 = system: NCI-H441
Summary of the method: as §1

NCI-H460 = system: NCI-H460
Summary of the method: as §1

NCI-H661 = system: NCI-H661
Summary of the method: as §1

NCI-H727 = system: NCI-H727
Summary of the method: as §1

PC-14 = system: PC-14
Summary of the method: as §1

SW 900 = system: SW 900
Summary of the method: as §1

**Q.** Which results are given for `CCN(CC)CCCCNc1ncc2cc(-c3cc(OC)cc(OC)c3)c(NC(=O)NC(C)(C)C)nc2n1` + CCNC(=O)c1noc(-c2cc(C(C)C)c(O)cc2O)c1-c1ccc(CN2CCOCC2)cc1 [Luminespib] (partner 0.01 µM)?
**A.** relative viability (201T; first compound 0.01 µM): 1.09; relative viability (201T; first compound 0.03162 µM): 0.955; relative viability (201T; first compound 0.1 µM): 1.11; relative viability (201T; first compound 0.3162 µM): 1.08; relative viability (201T; first compound 1 µM): 0.932; relative viability (ABC-1; first compound 0.01 µM): 0.731; relative viability (ABC-1; first compound 0.03162 µM): 0.405; relative viability (ABC-1; first compound 0.1 µM): 0.832; relative viability (ABC-1; first compound 0.3162 µM): 0.416; relative viability (ABC-1; first compound 1 µM): 0.693; relative viability (BEN; first compound 0.01 µM): 0.249; relative viability (BEN; first compound 0.03162 µM): 0.243; relative viability (BEN; first compound 0.1 µM): 0.545; relative viability (BEN; first compound 0.3162 µM): 0.496; relative viability (BEN; first compound 1 µM): 0.297; relative viability (CAL-12T; first compound 0.01 µM): 0.63; relative viability (CAL-12T; first compound 0.03162 µM): 0.338; relative viability (CAL-12T; first compound 0.1 µM): 0.363; relative viability (CAL-12T; first compound 0.3162 µM): 0.445; relative viability (CAL-12T; first compound 1 µM): 0.347; relative viability (COR-L 105; first compound 0.01 µM): 0.909; relative viability (COR-L 105; first compound 0.03162 µM): 0.698; relative viability (COR-L 105; first compound 0.1 µM): 0.73; relative viability (COR-L 105; first compound 0.3162 µM): 0.795; relative viability (COR-L 105; first compound 1 µM): 0.68; relative viability (EKVX; first compound 0.01 µM): 0.842; relative viability (EKVX; first compound 0.03162 µM): 0.909; relative viability (EKVX; first compound 0.1 µM): 0.934; relative viability (EKVX; first compound 0.3162 µM): 0.971; relative viability (EKVX; first compound 1 µM): 0.83; relative viability (HARA; first compound 0.01 µM): 1.11; relative viability (HARA; first compound 0.03162 µM): 0.896; relative viability (HARA; first compound 0.1 µM): 0.948; relative viability (HARA; first compound 0.3162 µM): 0.904; relative viability (HARA; first compound 1 µM): 0.439; relative viability (LK-2; first compound 0.01 µM): 0.153; relative viability (LK-2; first compound 0.03162 µM): 0.207; relative viability (LK-2; first compound 0.1 µM): 0.202; relative viability (LK-2; first compound 0.3162 µM): 0.183; relative viability (LK-2; first compound 1 µM): 0.184; relative viability (LOU-NH91; first compound 0.01 µM): 0.338; relative viability (LOU-NH91; first compound 0.03162 µM): 0.364; relative viability (LOU-NH91; first compound 0.1 µM): 0.36; relative viability (LOU-NH91; first compound 0.3162 µM): 0.421; relative viability (LOU-NH91; first compound 1 µM): 0.356; relative viability (NCI-H1437; first compound 0.01 µM): 1.18; relative viability (NCI-H1437; first compound 0.03162 µM): 1.1; relative viability (NCI-H1437; first compound 0.1 µM): 1.26; relative viability (NCI-H1437; first compound 0.3162 µM): 1.1; relative viability (NCI-H1437; first compound 1 µM): 1.05; relative viability (NCI-H1650; first compound 0.01 µM): 0.227; relative viability (NCI-H1650; first compound 0.03162 µM): 0.214; relative viability (NCI-H1650; first compound 0.1 µM): 0.204; relative viability (NCI-H1650; first compound 0.3162 µM): 0.206; relative viability (NCI-H1650; first compound 1 µM): 0.203; relative viability (NCI-H1666; first compound 0.01 µM): 0.944; relative viability (NCI-H1666; first compound 0.03162 µM): 0.971; relative viability (NCI-H1666; first compound 0.1 µM): 1.04; relative viability (NCI-H1666; first compound 0.3162 µM): 1.02; relative viability (NCI-H1666; first compound 1 µM): 0.794; relative viability (NCI-H2009; first compound 0.01 µM): 1.15; relative viability (NCI-H2009; first compound 0.03162 µM): 0.983; relative viability (NCI-H2009; first compound 0.1 µM): 1.13; relative viability (NCI-H2009; first compound 0.3162 µM): 1.1; relative viability (NCI-H2009; first compound 1 µM): 0.931; relative viability (NCI-H2170; first compound 0.01 µM): 0.446; relative viability (NCI-H2170; first compound 0.03162 µM): 0.857; relative viability (NCI-H2170; first compound 0.1 µM): 0.668; relative viability (NCI-H2170; first compound 0.3162 µM): 0.801; relative viability (NCI-H2170; first compound 1 µM): 0.937; relative viability (NCI-H3122; first compound 0.01 µM): 0.0914; relative viability (NCI-H3122; first compound 0.03162 µM): 0.082; relative viability (NCI-H3122; first compound 0.1 µM): 0.112; relative viability (NCI-H3122; first compound 0.3162 µM): 0.0822; relative viability (NCI-H3122; first compound 1 µM): 0.127; relative viability (NCI-H441; first compound 0.01 µM): 0.313; relative viability (NCI-H441; first compound 0.03162 µM): 0.422; relative viability (NCI-H441; first compound 0.1 µM): 0.344; relative viability (NCI-H441; first compound 0.3162 µM): 0.353; relative viability (NCI-H441; first compound 1 µM): 0.362; relative viability (NCI-H460; first compound 0.01 µM): 0.0378; relative viability (NCI-H460; first compound 0.03162 µM): 0.0357; relative viability (NCI-H460; first compound 0.1 µM): 0.0341; relative viability (NCI-H460; first compound 0.3162 µM): 0.0358; relative viability (NCI-H460; first compound 1 µM): 0.0473; relative viability (NCI-H661; first compound 0.01 µM): 0.922; relative viability (NCI-H661; first compound 0.03162 µM): 0.964; relative viability (NCI-H661; first compound 0.1 µM): 0.968; relative viability (NCI-H661; first compound 0.3162 µM): 0.982; relative viability (NCI-H661; first compound 1 µM): 0.925; relative viability (NCI-H727; first compound 0.01 µM): 0.251; relative viability (NCI-H727; first compound 0.03162 µM): 0.323; relative viability (NCI-H727; first compound 0.1 µM): 0.28; relative viability (NCI-H727; first compound 0.3162 µM): 0.278; relative viability (NCI-H727; first compound 1 µM): 0.327; relative viability (PC-14; first compound 0.01 µM): 0.138; relative viability (PC-14; first compound 0.03162 µM): 0.126; relative viability (PC-14; first compound 0.1 µM): 0.176; relative viability (PC-14; first compound 0.3162 µM): 0.141; relative viability (PC-14; first compound 1 µM): 0.138; relative viability (SW 900; first compound 0.01 µM): 0.172; relative viability (SW 900; first compound 0.03162 µM): 0.182; relative viability (SW 900; first compound 0.3162 µM): 0.15; relative viability (SW 900; first compound 1 µM): 0.188
